The values that follow come from US20230322735A1, “AZETIDINYL TRYPTAMINES AND METHODS OF TREATING PSYCHIATRIC DISORDERS” (priority 2020, published 2023).

One assay concerns the target T1, 5-HT1A receptor (Homo sapiens, UniProt P08908).
T1 construct: host or cells: CHO cells
T1 sequence (P08908 1-422): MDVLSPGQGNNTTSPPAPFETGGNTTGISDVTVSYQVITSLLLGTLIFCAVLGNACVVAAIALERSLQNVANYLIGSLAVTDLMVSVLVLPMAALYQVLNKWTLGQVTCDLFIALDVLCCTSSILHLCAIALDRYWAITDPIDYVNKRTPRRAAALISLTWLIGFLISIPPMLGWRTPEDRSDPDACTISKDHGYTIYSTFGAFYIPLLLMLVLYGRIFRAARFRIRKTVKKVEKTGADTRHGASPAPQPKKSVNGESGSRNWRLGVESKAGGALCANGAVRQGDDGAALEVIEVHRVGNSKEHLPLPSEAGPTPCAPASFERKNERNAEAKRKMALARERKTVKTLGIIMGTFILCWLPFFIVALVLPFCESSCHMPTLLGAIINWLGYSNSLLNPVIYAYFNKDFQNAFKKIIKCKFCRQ
In words: FLIPR Ca2+ flux agonist assay at 5-HT1A (CHO cells). Type of assay: cell-based. How it is done: A solution of 250 mM probenecid in 1 mL FLIPR assay buffer was prepared fresh. This was combined with a fluorescent dye (Fluo-4 Direct™) to make a final assay concentration of 2.5 mM. […] The fluorescent dye was then added to the assay plate along with assay buffer to a final volume of 40 μL. The cell plate was incubated for 50 min at 37° C. and 5% CO2 and placed into the FLIPR Tetra along with the compound plate. 10 μL of references and compounds were then transferred from the compound plate into the cell plate and the fluorescent signal was read.
On the technique in general: A change in cytosolic calcium serves as a functional read-out for many receptors and channels.

The next assay addresses T2, human 5-HT2C receptor (Homo sapiens, UniProt P28335).
T2 sequence (P28335 33-458): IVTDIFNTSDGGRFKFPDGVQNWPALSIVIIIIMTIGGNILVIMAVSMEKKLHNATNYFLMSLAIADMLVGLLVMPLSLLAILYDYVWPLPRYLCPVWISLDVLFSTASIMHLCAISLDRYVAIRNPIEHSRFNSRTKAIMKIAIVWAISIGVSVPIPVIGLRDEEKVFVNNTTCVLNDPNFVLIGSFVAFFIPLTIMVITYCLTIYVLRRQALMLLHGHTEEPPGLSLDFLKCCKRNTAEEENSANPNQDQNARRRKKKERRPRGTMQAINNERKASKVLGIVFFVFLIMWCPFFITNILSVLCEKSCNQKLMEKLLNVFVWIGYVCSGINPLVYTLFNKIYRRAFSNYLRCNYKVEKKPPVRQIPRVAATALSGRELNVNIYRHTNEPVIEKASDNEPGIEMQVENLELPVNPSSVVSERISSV
In words: cell-based. The settings on record: Ca2+ flux, agonist mode.

Molecules are shown by their SMILES.

`Oc1cccc2[nH]cc(CCN3CCC3)c12` [Compound 2, 3-(2-(azetidin-1-yl)ethyl)-1H-indol-4-ol] registered an EC50 at 5-HT1A receptor of 1030 nM. The “5-HT1A % Act @ Max Dose” value at 5-HT1A receptor (Ca2+ flux, agonist mode, CHO cells) worked out at 102%. In addition, on human 5-HT2C receptor, the “5-HT2C % Act @ Max Dose” value is on record as 48.4% and the EC50 is 279 nM.

For orientation: EC50 means the concentration that produces a half-maximal response.
